Measurements taken from patent US7585885B2, “Pyrrolidine derivatives useful as BACE inhibitors” (Eli Lilly and Company, priority 2004, dated 2009).
Where a name gives a salt, the structure may show the parent alone.

Key:
beta-secretase activity = molecular target: T1, beta-secretase activity (Homo sapiens, UniProt P56817); experiment: Whole cell assay for measuring the inhibition of beta-secretase activity; format: cell-based; conditions: HEK293/APP751sw or HEK293/APP751wt cells, 37 C for 4 to 6 hours, sandwich ELISA of conditioned media; read-out: IC50 (Abeta, sAPPbeta-lowering effect)
T1 construct: endogenous in cells; host or cells: HEK293p (ATCC CRL-1573) stably expressing human APP751sw or APP751wt
Procedure: (§1) For in vitro enzymatic and cellular assays, test compounds are prepared in DMSO to make up a 10 millimolar stock solution. The stock solution is serially diluted (in a 1:3, 1:2.5, 1:2, or 1:1 dilution series) in DMSO to obtain a final compound concentration of 10 millimolar to 1 micromolar at the first highest concentration of a ten-point dilution curve in a 96-well round-bottom plate right before conducting the in vitro enzymatic and whole assays.
The routine whole cell assay for the measurement of inhibition of beta-secretase activity utilizes the human embryonic kidney cell line HEK293p (ATCC Accession No. CRL-1573) stably expressing a human APP751 cDNA containing the naturally occurring double mutation […] to Asn651Leu652, commonly called the Swedish mutation (noted HEK293/APP751sw) and shown to overproduce Abeta (Citron et al., 1992, Nature 360:672-674). Human embryonic kidney HEK293p cells stably expressing wild-type human APP751 cDNA (noted HEK293/APP751 wt) are also used to assess the inhibition of beta-secretase activity. In vitro Aβ reduction assays have been described in the literature (See: Dovey, et al., Journal of Neurochemistry, 76, 173-181 (2001); Seubert, et al., Nature, 361, 260 (1993); and Johnson-Wood, et al., Proc. Natl. Acad. Sci. USA, 94, 1550-1555 (1997))
Cells (HEK293/APP751sw or HEK293/APP751wt, at 3×10^4 cells/well, containing 200 microliters culture media, DMEM containing 10% FBS) are incubated at 37 C for 4 to 6 hours in the presence/absence of inhibitors (diluted in DMSO) at the desired concentration. At the end of the incubation, conditioned media are analyzed for beta-secretase activity, for example, by analysis of cleavage fragments, Abeta peptide and sAPPbeta. Abeta peptides are measured by a sandwich ELISA, using monoclonal 266 as a capture antibody and biotinylated 3D6 as reporting antibody. The sAPPbeta fragments are analyzed by a sandwich ELISA, using monoclonal 8E5 antibody as a capture antibody and rabbit polyclonal 192sw or 192wt as a reporting antibody. Note that sAPPbeta is the cleavage product of full length APP by BACE1. The concentration of sAPPbeta released in the conditioned media following the compound treatment corresponds to the activity of BACE1 under such conditions. The 10-point inhibition curve was plotted and fitted with the four-parameter logistic equation to obtain the EC50 and IC50 values for the Abeta, sAPPbeta-lowering effect. Data for selected compounds of the invention tested in this assay are contained in the following table.

human BACE1 (1-460):Fc = molecular target: T2, human BACE1 (1-460):Fc (Homo sapiens, UniProt P56817); experiment: BACE1 mcaFRET Assay; format: biochemical; conditions: FRET substrate 15 micromolar, pH 4.6, room temperature 16 to 24 hours
T2 construct: made in house; host or cells: HEK293 (transient transfection, purified from conditioned media on Protein A-agarose)
Procedure: as §1
Serial dilutions of test compounds are prepared as described above. Two microliter of each dilution is added to each well on row A to H of a corresponding low protein binding black plate to which 50 microliter of 50 millimolar ammonium acetate, pH 4.6, 1 mM Triton X-100, 1 mg/ml Bovine Serum Albumin, and 15 micromolar of FRET substrate (sequence: (MCA)-S-E-V-N-L-D-A-E-F-R-K(Dnp)-R-R-R-R-NH2) for BACE1 activity are pre-added. The content is mixed well on a plate shaker for 10 min. Fifty microliter of two hundred picomolar human BACE1 (1-460):Fc (See: Vasser, et al., Science, 286, 735-741 (1999)) in the same reaction buffer described above is added to the plate containing substrate and test compounds to initiate the reaction. The relative fluorescence unit (RFU) of the mixture at time 0 is recorded at excitation wavelength 330 nm and emission wavelength 400 nm, after brief mixing on a plate shaker. The reaction plate is covered with aluminum foil and kept in a dark humidified oven at room temperature for 16 to 24 hours. The RFU at the end of incubation is recorded with the same excitation and emission setting. The difference of the RFU at time 0 and the end of incubation represents the activity of BACE1 under the compound treatment. The 10-point inhibition curve was plotted and fitted with the four-parameter logistic equation to obtain the EC50 and IC50 values. (See: Sinha, et al., Nature, 402, 537-540 (2000)). […] Data for selected compounds of the invention tested in this assay are contained in the following table.
Both human (accession number: AF190725) and murine (accession number: NM_011792) BACE1 were cloned from total brain cDNA by […]. The nucleotide sequences corresponding to amino acid sequences #1 to 460 were inserted into the cDNA encoding human IgG1 (Fc) polypeptide (Vassar et al. 1999). This fusion protein of BACE1 (1-460) and human Fc, named huBACE1:Fc, was constructed into the pJB02 vector. Human BACE1(1-460):Fc (huBACE1:Fc) and murine BACE1(1-460):Fc (muBACE1:Fc) were transiently expressed in HEK293 cells. 250 μg cDNA of each construct was mixed with Fugene 6 and added to 1 liter HEK293 cells. Four days after the transfection, conditioned media were harvested for purification.
Conditioned media of HEK293 cell transiently transfected with huBACE1:Fc or muBACE1:Fc cDNA were collected. Cell debris was removed by filtering the conditioned media through 0.22 μm sterile filter. 5 ml Protein A-agarose (bed volume) was added to 4 liter conditioned media. This mixture was gently stirred overnight at 4° C. The Protein A-agarose resin was collected and packed into a low-pressure chromatography column. The column washed with 20× bed volumes of PBS at flow rate 20 ml per hour. Bound huBACE1:Fc or muBACE1:Fc protein was eluted with 50 mM acetic acid, pH 3.6, at flow rate 20 ml per hour. 1 ml fractions of eluate were neutralized immediately with 0.5 ml 200 mM ammonium acetate, pH 6.5. The purity of final product was assessed by electrophoresis in 4-20% Tris-Glycine SDS-PAGE. The enzyme was stored at −80 C in small aliquots.

T2 sequence (P56817 22-460): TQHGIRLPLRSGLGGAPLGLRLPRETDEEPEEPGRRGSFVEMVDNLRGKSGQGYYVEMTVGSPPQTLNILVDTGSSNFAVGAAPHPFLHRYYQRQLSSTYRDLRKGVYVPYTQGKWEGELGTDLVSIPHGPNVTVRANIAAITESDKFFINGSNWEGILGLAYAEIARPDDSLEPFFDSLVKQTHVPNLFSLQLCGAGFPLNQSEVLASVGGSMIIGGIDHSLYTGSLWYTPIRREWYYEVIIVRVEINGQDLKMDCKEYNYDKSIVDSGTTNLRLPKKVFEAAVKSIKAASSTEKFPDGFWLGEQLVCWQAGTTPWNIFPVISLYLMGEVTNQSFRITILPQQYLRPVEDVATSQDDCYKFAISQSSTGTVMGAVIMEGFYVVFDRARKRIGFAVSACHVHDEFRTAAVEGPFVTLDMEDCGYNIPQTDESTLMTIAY
T1 sequence (P56817 46-501): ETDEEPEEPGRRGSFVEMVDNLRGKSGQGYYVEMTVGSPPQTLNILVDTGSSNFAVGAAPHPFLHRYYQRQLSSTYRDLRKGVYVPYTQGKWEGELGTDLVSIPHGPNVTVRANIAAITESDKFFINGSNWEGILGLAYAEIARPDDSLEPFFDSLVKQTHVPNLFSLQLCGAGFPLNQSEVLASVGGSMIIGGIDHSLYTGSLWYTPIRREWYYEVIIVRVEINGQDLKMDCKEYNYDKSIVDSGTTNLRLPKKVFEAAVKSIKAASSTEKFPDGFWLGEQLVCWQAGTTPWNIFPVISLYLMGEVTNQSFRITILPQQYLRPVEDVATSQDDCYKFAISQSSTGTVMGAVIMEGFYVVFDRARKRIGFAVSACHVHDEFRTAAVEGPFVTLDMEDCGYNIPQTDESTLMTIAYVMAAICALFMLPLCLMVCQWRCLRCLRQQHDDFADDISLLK

Row | SMILES | IC50 (beta-secretase activity) | IC50 (human BACE1 (1-460):Fc)
1 | CCC(C)Nc1cc(C(=O)NC(Cc2ccccc2)C(O)C2CCCN2)cc(N(C)S(C)(=O)=O)n1 [Example 12, N-((1S,2R)-1-Benzyl-2-hydroxy-2-(R)-pyrrolidin-2-ylethyl)-2-(S)-sec-butylamino-6-(methanesulfonyl-methylamino)-isonicotinamide hydrochloride] | 15 nM | 1.8 nM
2 | CC(=O)N[C@@H](Cc1cc(F)cc(F)c1)[C@H](O)[C@H]1C[C@@H](CC(=O)N2CCCCCC2)CN1 [Example 41, N-[(1S,2R)-2-[(2R,4S)-4-(2-Azepan-1-yl-2-oxo-ethyl)-pyrrolidin-2-yl]-1-(3,5-difluoro-benzyl)-2-hydroxy-ethyl]-acetamide hydrochloride] | 6070 nM | 380 nM
3 | CC(=O)N[C@@H](Cc1cc(F)cc(F)c1)[C@H](O)[C@H]1C[C@@H](OCCC2CCCCC2)CN1 [Example 60, N-[(1S,2R)-2-[(2R,4R)-4-(2-Cyclohexyl-ethoxy)-pyrrolidin-2-yl]-1-(3,5-difluoro-benzyl)-2-hydroxy-ethyl]-acetamide hydrochloride] |  | 2300 nM

Results, then the compound that gave them:

Row | IC50 (beta-secretase activity) | IC50 (human BACE1 (1-460):Fc) | SMILES
4 | 13 nM | 3.9 nM | CCC(C)Nc1cc(C(=O)NC(Cc2ccccc2)C(O)C2CC(F)CN2)cc(N(C)S(C)(=O)=O)n1 [Example 7, N-[1-(S)-Benzyl-2-(R)-(4-(S)-fluoropyrrolidin-2-yl)-2-(R)-hydroxyethyl]-2-(S)-sec-butylamino-6-(methanesulfonyl-methylamino)-isonicotinamide bishydrochloride]
5 | 14300 nM | 820 nM | CC(=O)N[C@@H](Cc1cc(F)cc(F)c1)[C@H](O)[C@H]1C[C@@H](CC(=O)N2CCCCC2)CN1 [Example 33, N-{(1S,2R)-1-(3,5-Difluoro-benzyl)-2-hydroxy-2-[(2R,4S)-4-(2-oxo-2-piperidin-1-yl-ethyl)-pyrrolidin-2-yl]-ethyl}-acetamide hydrochloride]
6 |  | 1400 nM | CC(=O)N[C@@H](Cc1cc(F)cc(F)c1)[C@H](O)[C@H]1C[C@@H](CC(=O)N2CCOCC2)CN1 [Example 35, N-{(1S,2R)-1-(3,5-Difluoro-benzyl)-2-hydroxy-2-[(2R,4S)-4-(2-morpholin-4-yl-2-oxo-ethyl)-pyrrolidin-2-yl]-ethyl}-acetamide hydrochloride]
7 |  | 5200 nM | CC(=O)N[C@@H](Cc1cc(F)cc(F)c1)[C@H](O)[C@H]1C[C@@H](CC(=O)N(C)C)CN1 [Example 37, 2-{(3S,5R)-5-[(1R,2S)-2-Acetylamino-3-(3,5-difluoro-phenyl)-1-hydroxy-propyl]-pyrrolidin-3-yl}-N,N-dimethyl-acetamide hydrochloride]
